From US8536202B2, “Triazole-substituted anthranilamides as pesticides” (Bayer Cropscience AG, priority 2010, dated 2013)
Where two headings read alike, the source gives them in different places.

Legend:
[1] = log P determination by HPLC on reversed-phase columns (EEC Directive 79/831 Annex V.A8); format: physicochemical; conditions: pH 2.7
Description: Determination by LC-MS in the acidic range takes place at a pH of 2.7 using 0.1% aqueous formic acid and acetonitrile (containing 0.1% formic acid) as eluents, with a linear gradient from 10% acetonitrile to 95% acetonitrile.
Calibration was carried out using unbranched alkan-2-ones (having 3 to 16 carbon atoms) with known log P values (the log P values are determined from the retention times by linear interpolation between two successive alkanones).

[2] = test system: caterpillars of the armyworm (Spodoptera frugiperda); test: Spodoptera frugiperda test (SPODFR spray treatment); format: in vivo; conditions: 168 h, 100 g/ha, after 7 days, read-out: activity in %
Description: (§1) Solvents: 78.0 parts by weight of acetone • • 1.5 parts by weight of dimethylformamide
(§2) Emulsifier: 0.5 part by weight of alkylaryl polyglycol ether
(§3) An appropriate preparation of active compound is prepared by mixing 1 part by weight of active compound with the stated amounts of solvent and emulsifier and diluting the concentrate with emulsifier-containing water to the desired concentration.
Leaf discs of maize (Zea mays) are sprayed with a preparation of active compound at the desired concentration and, after drying, are populated with caterpillars of the armyworm (Spodoptera frugiperda).
After 7 days, the activity in % is ascertained. Here, 100% means that all of the caterpillars have been killed; 0% means that no caterpillar has been killed.

[3] = test system: larvae of the mustard beetle (Phaedon cochleariae); test: Phaedon test (PHAECO spray treatment); format: in vivo; conditions: 168 h, 100 g/ha, after 7 days, read-out: activity in %
Description: as §1, §2, §3
After 7 days, the activity in % is ascertained. Here, 100% means that all of the beetle larvae have been killed; 0% means that no beetle larvae have been killed.

Structure (SMILES)	chromatographic logP [1]	pest or weed control at 100 g/ha [2]	pest or weed control at 100 g/ha [3]	chromatographic logP ([1]; reversed-phase C18 HPLC column, HPLC on reversed-phase columns (C 18), EEC Directive 79/831 Annex V.A8, read-out: logP)
Cc1cc(C#N)cc(C(N)=O)c1NC(=O)c1cc(Cn2cc(-c3ccc(C(F)(F)F)cc3)nn2)nn1-c1ncccc1Cl [Example 2]	2.81	100%	100%	
CNC(=O)c1cc(C#N)cc(C)c1NC(=O)c1cc(Cn2cc(-c3ccc(C(F)(F)F)cc3)nn2)nn1-c1ncccc1Cl [Example 3]	2.99	100%	100%	
Cc1cc(C#N)cc(C(=O)NC(C)C)c1NC(=O)c1cc(Cn2cc(-c3ccc(C(F)(F)F)cc3)nn2)nn1-c1ncccc1Cl [Example 4]		100%	100%	3.39
CNC(=O)c1cc(Cl)cc(C)c1NC(=O)c1cc(Cn2cc(-c3ccc(F)cc3)nn2)nn1-c1ncccc1Cl [Example 16]	2.84	83%	100%	
CNC(=O)c1cc(Cl)cc(C)c1NC(=O)c1cc(Cn2cc(-c3ccc(Cl)cc3)nn2)nn1-c1ncccc1Cl [Example 17]	3.57	100%	100%	
CNC(=O)c1cc(Cl)cc(C)c1NC(=O)c1cc(Cn2cc(-c3ccc(Cl)cc3Cl)nn2)nn1-c1ncccc1Cl [Example 18]	3.2	100%	100%	
CNC(=O)c1cc(Cl)cc(C)c1NC(=O)c1cc(Cn2cc(-c3ccccc3Cl)nn2)nn1-c1ncccc1Cl [Example 19]	2.74	100%	100%	
CNC(=O)c1cc(Cl)cc(C)c1NC(=O)c1cc(Cn2cc(-c3cccc(Cl)c3)nn2)nn1-c1ncccc1Cl [Example 20]	3.11	100%	100%	
CNC(=O)c1cc(Cl)cc(C)c1NC(=O)c1cc(Cn2ncc(-c3ccc(F)cc3)n2)nn1-c1ncccc1Cl [Example 24]	3.23	100%	100%	
CNC(=O)c1cc(Cl)cc(C)c1NC(=O)c1cc(Cn2ncc(-c3ccc(Cl)cc3)n2)nn1-c1ncccc1Cl [Example 25]	3.62	100%	100%	
CNC(=O)c1cc(Cl)cc(C)c1NC(=O)c1cc(Cn2ncc(-c3ccccc3Cl)n2)nn1-c1ncccc1Cl [Example 27]	3.43	100%	100%	
CNC(=O)c1cc(Cl)cc(C)c1NC(=O)c1cc(Cn2ncc(-c3cccc(Cl)c3)n2)nn1-c1ncccc1Cl [Example 28]	3.63	100%	100%	
CNC(=O)c1cc(C#N)cc(C)c1NC(=O)c1cc(Cn2cc(-c3ccc(Cl)cc3)nn2)nn1-c1ncccc1Cl [Example 33]	2.75	100%	100%	
CNC(=O)c1cc(C#N)cc(C)c1NC(=O)c1cc(Cn2cc(-c3ccc(Cl)cc3Cl)nn2)nn1-c1ncccc1Cl [Example 34]	3.2	100%	100%	
CNC(=O)c1cc(C#N)cc(C)c1NC(=O)c1cc(Cn2ncc(C(C)C)n2)nn1-c1ncccc1Cl [Example 38]	2.58		100%	
Cc1cc(Cl)cc(C(=O)NC(C)(C)C)c1NC(=O)c1cc(Cn2ncc(C3CC3)n2)nn1-c1ncccc1Cl [Example 46]	3.6		100%	
Cc1cc(I)cc(C(=O)NC2CCC2)c1NC(=O)c1cc(Cn2ncc(C(F)(F)F)n2)nn1-c1ncccc1Cl [Example 164]	3.89		100%	
Cc1cc(C#N)cc(C(=O)NCC#N)c1NC(=O)c1cc(Cn2cc(C(F)(F)F)nn2)nn1-c1ncccc1Cl [Example 186]	2.32		100%	
